# In patent publication US9867798B2, “Ladostigil therapy for immunomodulation” (priority 2012, dated 2018):
# Key:
# BuChE = BuChE (Homo sapiens, UniProt P06276); assay: Relative potency in inhibiting BuChE and AChE
# ChE = assay: Cholinesterase inhibition in plasma and spleen of LPS injected mice (Example 5); assay type: in vivo, Balb-C mice; details: 120 min after oral administration; for Inhibition of ChE, plasma / Inhibition of ChE, spleen: LPS injected mice
# Experimental: In experiments on the effect of chronic treatment with ladostigil on ChE activity in mice drinking DSS, the spleen was rapidly removed as described above, together with a colon segment of about 0.5 cm in length taken from the proximal area. Spleen and colon segments were washed in cold phosphate buffered saline (PBS) before they were frozen at −80° C. For assay, the tissue was unfrozen and weighed and PBS was added to each tissue at a ratio of 1 mg tissue to 1 ml. Tissues were homogenized at a speed of 24,000 rpm in cold phosphate buffer pH 7 containing 0.1% Triton and centrifuged at 14000 rpm. Aliquots of plasma and the supernatant from the spleen and colon were incubated with acetylthiocholine and dinitro benzoic acid in phosphate buffer pH 7 and the rate of development of the yellow color was measured as described by Ellman et al, (1961). Percent inhibition of ChE activity was calculated by comparison with that of control mice given water by gavage. Protein concentration was determined by means of by Pierce BCA Protein Assay Kit (Thermo Scientific, USA) according to the manufacturer's instructions. It is noted, that ChE activity in the colon and spleen of mice is attributed mainly to that of AChE while that in mouse plasma is mainly attributable to BuChE.
# For the LPS experiment involving a single administration, ladostigil (10 or 20 mg/kg) in a volume of 1 ml/100 g or water (1 ml/100 g) were given by gavage to groups of 6-8 Balb-C male mice weighing 24-30 g and LPS as described above. […] Blood was taken into heparinized tubes and centrifuged at 14000 rpm at room temperature for 4 min to provide plasma and the spleen was rapidly removed, weighed, frozen in liquid nitrogen and stored at −80° C. until assayed. It is noted, that ChE inhibition in mouse plasma is mainly attributed to BuChE activity, and in mouse spleen—mainly to AChE activity.
# Percent inhibition of ChE activity was calculated by comparison with that of control mice given water by gavage as described in Example 1 above.
# MAO-A = target: T1, MAO-A (Rattus norvegicus, UniProt P21396); assay: MAO-A activity in heart of treated rats; assay type: in vivo; details: read-out: MAO-A activity in the heart inhibited
# T1 construct: from tissue; host or cells: heart of aged Wistar rats after chronic oral dosing
# T1 sequence (P21396 1-526): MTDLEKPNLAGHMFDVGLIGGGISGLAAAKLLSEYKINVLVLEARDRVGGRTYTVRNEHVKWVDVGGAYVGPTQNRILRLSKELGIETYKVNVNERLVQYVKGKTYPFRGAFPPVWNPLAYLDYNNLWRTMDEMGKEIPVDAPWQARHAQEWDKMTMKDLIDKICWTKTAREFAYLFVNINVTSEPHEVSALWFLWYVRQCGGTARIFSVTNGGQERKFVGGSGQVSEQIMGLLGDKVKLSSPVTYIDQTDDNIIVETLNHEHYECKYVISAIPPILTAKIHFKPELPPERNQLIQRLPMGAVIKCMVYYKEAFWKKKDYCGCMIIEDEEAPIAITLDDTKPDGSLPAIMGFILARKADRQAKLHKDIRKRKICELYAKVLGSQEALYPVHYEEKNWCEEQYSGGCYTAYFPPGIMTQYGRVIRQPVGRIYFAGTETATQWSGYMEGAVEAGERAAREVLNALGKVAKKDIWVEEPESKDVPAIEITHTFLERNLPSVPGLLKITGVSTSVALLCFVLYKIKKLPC
# [1] = tested on: rat heart ischemia/reperfusion; assay: Myocardial ischemic preconditioning, isolated Langendorff hearts of chronically treated rats; assay type: in vivo, Wistar rats; parameters: DP: unit not given beside the values; details: for DP / HR / WI: old rats; for WI: percent of value at end of stabilization
# Experimental: Four groups of male rats of the Wistar strain were used for these studies; a) 3-months old untreated; b) 22 months old, untreated; c) 22 months old treated from the age of 16 months by daily oral administration of ladostigil hemitartrate at a dose of 1 mg/kg/day (hereinafter “low dose”; d) 22 months old treated from the age of 16 months by daily oral administration of ladostigil hemitartrate at a dose of 8.5 mg/kg/day (hereinafter “high dose”).
# On the day of the experiment, rats were injected with i.p. sodium heparin (500 units/kg) followed 30 min later by 80 mg/kg ketamine plus 5 mg/kg xylazine i.p. Bilateral thoracotomy was performed and hearts with a segment of the ascending aorta were rapidly excised, put in ice-cold heparinized saline and mounted onto the Langendorff apparatus. They were perfused with a modified Krebs-Henseleit (KH) buffer as described in Chevion et al. (1993). Heart rate (HR), developed pressure (DP), and its derivatives (+dp/dt and −dp/dt) were recorded. All primary data were processed using a customized version of LabView 7.1 software (National Instruments, Austin, Tex., USA). Work index (WI=Heart Rate×DP) was used as an indicator of heart contractility. The degree of cardio-protection was expressed by the percent (ratio) of two values: WI at the completion of the experiment (at the 120th min) and WI at the completion of the stabilization phase (at the 10th min).
# Experimental protocol: Three basic experimental protocols were employed: (i) continuous (un-interrupted) perfusion: (ii) stabilization (25 min) followed by ischemia and reperfusion (35/60 min) (I/R), and (iii) stabilization (10 min) followed by IPC, ischemia and reperfusion (IPC+I/R). The hemodynamic parameters of the heart were monitored and recorded continuously throughout, during all experimental protocols. Under the I/R protocol, the stabilization phase was extended from 10 to 25 min to compensate for the 15 min of the IPC procedure, which consisted of 3 cycles of (2 min ischemia and 3 min perfusion).
# [2] = IPC + I/R, high dose 8.5 mg/kg/day
# [3] = IPC + I/R, low dose 1 mg/kg/day
# Sequence of BuChE (P06276 29-602): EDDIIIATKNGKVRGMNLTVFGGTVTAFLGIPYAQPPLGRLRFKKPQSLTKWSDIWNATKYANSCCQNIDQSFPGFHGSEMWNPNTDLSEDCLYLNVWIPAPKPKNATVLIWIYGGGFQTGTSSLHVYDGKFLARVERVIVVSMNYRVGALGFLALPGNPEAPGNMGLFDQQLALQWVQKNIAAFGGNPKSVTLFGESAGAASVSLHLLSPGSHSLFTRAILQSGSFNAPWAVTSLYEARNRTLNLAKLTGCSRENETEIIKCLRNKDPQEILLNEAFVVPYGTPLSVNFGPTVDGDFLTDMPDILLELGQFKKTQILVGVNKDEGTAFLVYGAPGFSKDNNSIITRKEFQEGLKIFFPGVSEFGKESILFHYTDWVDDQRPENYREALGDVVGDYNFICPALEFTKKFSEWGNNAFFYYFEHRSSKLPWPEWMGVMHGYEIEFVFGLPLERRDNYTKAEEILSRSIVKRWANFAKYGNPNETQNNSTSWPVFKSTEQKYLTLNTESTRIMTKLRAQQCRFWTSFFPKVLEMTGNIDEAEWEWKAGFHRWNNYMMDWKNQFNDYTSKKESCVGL
compound,measurement,setting,value
"C#CCN[C@@H]1CCc2ccc(OC(=O)N(C)CC)cc21 [Ladostigil, R(+)-6-(N-methyl, N-ethyl-carbamoyloxy)-N′-propargyl-1-aminoindan]",Potency in inhibiting BuChE relative to AChE,BuChE,at least ten times more potent in inhibiting BuChE than in inhibiting AChE
same,Inhibition of ChE activity in plasma or spleen,ChE; ladostigil 10 mg/kg,did not significantly inhibit ChE activity
same,"Inhibition of ChE, plasma",ChE; ladostigil 10 mg/kg,7.8 ± 2.4%
same,"Inhibition of ChE, spleen",ChE; ladostigil 10 mg/kg,15.1 ± 3.6%
same,"Inhibition of ChE, plasma",ChE; ladostigil 20 mg/kg,27.4±5.9%
same,"Inhibition of ChE, spleen",ChE; ladostigil 20 mg/kg,28.1 ± 1.9 %
same,inhibition at 8.5 mg/kg/day,MAO-A,50 to 60%
same,Effect on WI after ischemia and 60 min reperfusion,"[1]; aging rats, I/R without IPC, either dose",no significant effect
same,DP,"[1]; I/R, high dose 8.5 mg/kg/day",14 ± 6
same,HR,"[1]; I/R, high dose 8.5 mg/kg/day",83 ± 8
same,WI,"[1]; I/R, high dose 8.5 mg/kg/day",12 ± 5%
same,DP,"[1]; I/R, low dose 1 mg/kg/day",20 ± 10
same,HR,"[1]; I/R, low dose 1 mg/kg/day",67 ± 15
same,WI,"[1]; I/R, low dose 1 mg/kg/day",13 ± 6%
same,DP,[1]; [2],30 ± 12
same,HR,[1]; [2],92 ± 28
same,WI,"[1]; IPC + I/R, high dose 8.5 mg/kg/day, 8.5 mg/kg/day",26 ± 6%
same,WI,"[1]; IPC + I/R, high dose 8.5 mg/kg/day, listed as ladostigil, 8.5 mg/kg/day",much smaller
same,DP,[1]; [3],68 ± 15
same,HR,[1]; [3],77 ± 8
same,WI,"[1]; IPC + I/R, low dose 1 mg/kg/day, 1 mg/kg/day",53 ± 12%
same,WI,"[1]; IPC + I/R, low dose 1 mg/kg/day, listed as ladostigil, 1 mg/kg/day",> 50%
